The assay deals with atherosclerotic plaque of an atherosclerotic cadaveric superficial femoral artery. In words: ex vivo dissolution of atherosclerotic plaque in cadaveric superficial femoral artery. Details: species or system human. The following applies: for dissolution of atherosclerotic plaque: exposure about ten minutes to about thirty minutes.
The mark [1] stands for this setting: about 2.5% by weight, about 97% base composition.
Setting [2] is: about 98% by weight in the chemical composition, about 2% base composition.
Where [3] appears, read: about 20% by weight, about 80% base composition such as normal saline.
The mark [4] stands for this setting: about 90% by weight, about 10% base composition.
Setting [5] is: about 99.9% by weight in the chemical composition, about 0.1% base composition.

“Also recorded” adds a separate entry of the source.

The text below walks through data of patent US20110196383A1, “Atherosclerotic Plaque Dissolution Composition” (Atherolysis Medical, Inc, priority 2009, published 2011).

Take `CC(=O)Oc1ccccc1C(=O)O` [acetylsalicylic acid, reference compound]: where the note is “about 12% by weight in the chemical composition, about 88% base composition”, the “dissolution of atherosclerotic plaque” value is on record as “showed effectiveness in dissolving atherosclerotic plaque; also recorded: dissolution of atherosclerotic plaque was noted”.

Regarding `Oc1ccc(/C=C\c2cc(O)cc(O)c2)cc1` [cis-resveratrol], under setting [1], the “dissolution of atherosclerotic plaque” value is on record as “dissolution of atherosclerotic plaque was noted”.

`CCCCCCCC(=O)O` [octanoic acid]: the “dissolution of atherosclerotic plaque” value under setting [2] is listed as “showed effectiveness in dissolving atherosclerotic plaque; also recorded: dissolution of atherosclerotic plaque was noted”.

As for `CCO` [ethanol], where the note is “about 94% by weight, about 6% base composition”, the “dissolution of atherosclerotic plaque” value is listed as “dissolution of atherosclerotic plaque was noted”. Further, the “effectiveness in dissolving atherosclerotic plaque” value (concentration of about 94% to about 96%) is “showed effectiveness in dissolving atherosclerotic plaque”.

As for `O=C1[C@H](CC[C@H](O)c2ccc(F)cc2)[C@@H](c2ccc(O)cc2)N1c1ccc(F)cc1` [ezetimibe, reference compound], the “dissolution of atherosclerotic plaque” value under setting [3] is “dissolution of atherosclerotic plaque was noted”.

Take `OCC(O)CO` [glycerine]: the “dissolution of atherosclerotic plaque” value (about 100% by weight in the chemical composition) was “showed effectiveness in dissolving atherosclerotic plaque; also recorded: dissolution of atherosclerotic plaque was noted”.

As to `CC(O)C(=O)O` (centres unmarked) [lactic acid], the “dissolution of atherosclerotic plaque” value under setting [2] is on record as “dissolution of atherosclerotic plaque was noted”.

Regarding `C=C(C)[C@H]1CC=C(C)CC1` [d-limonene], the “dissolution of atherosclerotic plaque” value under setting [2] is on record as “showed effectiveness in dissolving atherosclerotic plaque; also recorded: dissolution of atherosclerotic plaque was noted”.

With `CC(=O)O` [acetic acid], the “dissolution of atherosclerotic plaque” value (about 50% by weight, about 50% base composition) is “dissolution of atherosclerotic plaque was noted”.

On to `Oc1ccc(/C=C/c2cc(O)cc(O)c2)cc1` [trans-resveratrol], for which the “dissolution of atherosclerotic plaque” value under setting [1] is “dissolution of atherosclerotic plaque was noted”.

2-octane [Example 2-octane]: the “dissolution of atherosclerotic plaque” value under setting [2] was “showed effectiveness in dissolving atherosclerotic plaque; also recorded: dissolution of atherosclerotic plaque was noted”.

`ClCCl` [dichloromethane]: the “dissolution of atherosclerotic plaque” value reads like this: (about 92% by weight, about 8% base composition) “showed effectiveness in dissolving atherosclerotic plaque”; (about 99.1% by weight, about 0.9% base composition) “dissolution of atherosclerotic plaque was noted”.

On to `CCCCCCCCCCCC[N+](C)(C)CC(O)CS(=O)(=O)[O-]` (centres unmarked) [lauryldimethyl hydroxysultaine], for which the “dissolution of atherosclerotic plaque” value under setting [4] is given as “dissolution of atherosclerotic plaque was noted”.

With `CC(C)c1nc(N(C)S(C)(=O)=O)nc(-c2ccc(F)cc2)c1/C=C/[C@@H](O)C[C@@H](O)CC(=O)O` [rosuvastatin, reference compound], the “dissolution of atherosclerotic plaque” value under setting [3] was “dissolution of atherosclerotic plaque was noted”.

Take `Oc1ccc(/C=C/c2cc(O)cc(O)c2)cc1` [resveratrol, 3,5,4′-trihydroxy-trans-stilbene]: for the setting “dissolved in water or an organic solvent in a concentration of about 0.1% to about 99.9%”, the “effectiveness in dissolving atherosclerotic plaque” value is reported as “showed effectiveness in dissolving atherosclerotic plaque”.

`Cc1ccccc1` [toluene]: the “dissolution of atherosclerotic plaque” value (about 40% by weight, about 60% base composition) is “showed effectiveness in dissolving atherosclerotic plaque; also recorded: dissolution of atherosclerotic plaque was noted”.

Take `CC(O)CO` (centres unmarked) [propylene glycol]: the “dissolution of atherosclerotic plaque” value under setting [5] is “showed effectiveness in dissolving atherosclerotic plaque; also recorded: dissolution of atherosclerotic plaque was noted”.

For `O=C(O)[C@H](O)[C@@H](O)[C@H](O)[C@H](O)CO` [gluconic acid], the “dissolution of atherosclerotic plaque” value (about 80% by weight, about 20% base composition) is on record as “dissolution of atherosclerotic plaque was noted”.

Regarding `CO` [methanol], the “dissolution of atherosclerotic plaque” value under setting [5] is on record as “showed effectiveness in dissolving atherosclerotic plaque; also recorded: dissolution of atherosclerotic plaque was noted”.

Consider `S=C=S` [carbon disulfide], for which the “dissolution of atherosclerotic plaque” value under setting [4] is “showed effectiveness in dissolving atherosclerotic plaque; also recorded: dissolution of atherosclerotic plaque was noted”.

For `ClC(Cl)Cl` [chloroform], the “dissolution of atherosclerotic plaque” value (about 95% by weight, about 5% base composition) is “showed effectiveness in dissolving atherosclerotic plaque; also recorded: dissolution of atherosclerotic plaque was noted”.
